Measurements taken from patent US12427210B2, “Compounds comprising a fibroblast activation protein ligand and use thereof” (priority 2019, dated 2025).

Experiments:
[1] = system: serine protease NS3 (a.a. 3-181) from Hepatitis C virus genotype 1b; conditions: Reference, 100 nM
[2] = system: serine protease NS3 (a.a. 3-181) from Hepatitis C virus genotype 1a (mutant D168V); conditions: Reference, 100 nM
[3] = biological target: serine protease NS3 (a.a. 3-181) from Hepatitis C virus genotype 2a (Hepatitis C virus genotype 2a, UniProt Q99IB8); conditions: 100 nM
DPP7 = DPP7 (Homo sapiens, UniProt Q9UHL4); conditions: 200 μM
DPP8 = DPP8 (Homo sapiens, UniProt Q6V1X1); conditions: 200 μM
FAP = FAP (Homo sapiens, UniProt Q12884); conditions: 100 nM
Deubiquitinase OTUD6B = biological target: T1, Deubiquitinase OTUD6B (Homo sapiens, UniProt Q8N6M0); conditions: 1 μM
T1 sequence (Q8N6M0 1-293): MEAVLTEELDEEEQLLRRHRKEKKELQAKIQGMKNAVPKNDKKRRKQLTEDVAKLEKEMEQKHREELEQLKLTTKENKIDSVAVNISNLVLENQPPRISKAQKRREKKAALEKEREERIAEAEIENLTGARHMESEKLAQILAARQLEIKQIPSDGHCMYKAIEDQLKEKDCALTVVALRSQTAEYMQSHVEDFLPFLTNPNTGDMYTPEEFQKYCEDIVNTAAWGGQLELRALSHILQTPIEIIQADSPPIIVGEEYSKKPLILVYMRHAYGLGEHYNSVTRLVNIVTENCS

[4] = biological target: T2, Ubiquitin carboxy-terminal hydrolase L1 (Homo sapiens, UniProt P09936); conditions: 100 nM
T2 sequence (P09936 1-223): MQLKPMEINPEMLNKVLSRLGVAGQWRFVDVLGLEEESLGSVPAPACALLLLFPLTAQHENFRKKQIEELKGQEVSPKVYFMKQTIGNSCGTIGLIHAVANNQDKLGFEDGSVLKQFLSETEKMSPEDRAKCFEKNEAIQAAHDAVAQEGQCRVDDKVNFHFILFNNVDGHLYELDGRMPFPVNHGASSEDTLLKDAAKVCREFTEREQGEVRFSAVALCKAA

[5] = biological target: T3, Ubiquitin carboxy-terminal hydrolase L3 (Homo sapiens, UniProt P15374); conditions: 10 nM
T3 sequence (P15374 1-230): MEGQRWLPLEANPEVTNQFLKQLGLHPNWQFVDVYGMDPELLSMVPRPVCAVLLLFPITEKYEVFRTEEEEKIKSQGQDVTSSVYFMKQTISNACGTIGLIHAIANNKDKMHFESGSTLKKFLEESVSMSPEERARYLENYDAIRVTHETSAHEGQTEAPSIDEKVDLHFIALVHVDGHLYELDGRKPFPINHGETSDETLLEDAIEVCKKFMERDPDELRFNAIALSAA

[6] = biological target: Ubiquitin carboxyl-terminal hydrolase 7 (Homo sapiens, UniProt Q93009); conditions: 1 μM
Ataxin3 = Ataxin3 (Homo sapiens, UniProt P54252); conditions: 10 μM
[7] = biological target: T4, Ubiquitin carboxyl-terminal hydrolase 8 (Homo sapiens, UniProt P40818); conditions: 1 μM
T4 sequence (P40818 1-1118): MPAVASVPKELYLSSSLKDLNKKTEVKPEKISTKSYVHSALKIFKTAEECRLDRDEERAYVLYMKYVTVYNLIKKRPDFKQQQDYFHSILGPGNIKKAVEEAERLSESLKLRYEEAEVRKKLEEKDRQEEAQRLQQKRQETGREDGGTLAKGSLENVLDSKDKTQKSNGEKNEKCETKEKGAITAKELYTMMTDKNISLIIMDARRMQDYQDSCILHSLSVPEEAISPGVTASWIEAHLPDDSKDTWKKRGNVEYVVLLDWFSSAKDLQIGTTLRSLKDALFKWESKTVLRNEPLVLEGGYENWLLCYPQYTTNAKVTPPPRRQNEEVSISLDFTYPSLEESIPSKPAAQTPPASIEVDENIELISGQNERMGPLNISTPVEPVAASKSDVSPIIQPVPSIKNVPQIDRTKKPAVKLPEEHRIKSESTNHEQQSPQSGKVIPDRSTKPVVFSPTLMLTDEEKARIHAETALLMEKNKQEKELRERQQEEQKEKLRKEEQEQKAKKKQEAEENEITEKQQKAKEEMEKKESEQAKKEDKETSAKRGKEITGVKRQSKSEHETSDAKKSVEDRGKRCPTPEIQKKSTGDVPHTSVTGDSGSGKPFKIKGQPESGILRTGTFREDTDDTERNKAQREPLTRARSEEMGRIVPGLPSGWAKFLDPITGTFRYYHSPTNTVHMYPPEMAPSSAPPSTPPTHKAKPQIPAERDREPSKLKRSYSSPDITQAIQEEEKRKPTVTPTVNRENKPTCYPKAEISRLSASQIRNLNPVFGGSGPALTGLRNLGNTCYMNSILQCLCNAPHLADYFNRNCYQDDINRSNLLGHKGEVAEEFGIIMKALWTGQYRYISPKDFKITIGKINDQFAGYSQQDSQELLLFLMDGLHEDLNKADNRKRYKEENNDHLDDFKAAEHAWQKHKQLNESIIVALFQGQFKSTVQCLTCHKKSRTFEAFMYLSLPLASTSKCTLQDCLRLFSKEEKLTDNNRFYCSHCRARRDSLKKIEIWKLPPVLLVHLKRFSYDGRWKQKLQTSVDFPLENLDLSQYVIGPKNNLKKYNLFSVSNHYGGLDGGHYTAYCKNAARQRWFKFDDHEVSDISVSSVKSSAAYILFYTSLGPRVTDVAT

[8] = biological target: T5, Ubiquitin carboxyl-terminal hydrolase 2 (Homo sapiens, UniProt O75604); conditions: 1 μM
T5 sequence (O75604 1-605): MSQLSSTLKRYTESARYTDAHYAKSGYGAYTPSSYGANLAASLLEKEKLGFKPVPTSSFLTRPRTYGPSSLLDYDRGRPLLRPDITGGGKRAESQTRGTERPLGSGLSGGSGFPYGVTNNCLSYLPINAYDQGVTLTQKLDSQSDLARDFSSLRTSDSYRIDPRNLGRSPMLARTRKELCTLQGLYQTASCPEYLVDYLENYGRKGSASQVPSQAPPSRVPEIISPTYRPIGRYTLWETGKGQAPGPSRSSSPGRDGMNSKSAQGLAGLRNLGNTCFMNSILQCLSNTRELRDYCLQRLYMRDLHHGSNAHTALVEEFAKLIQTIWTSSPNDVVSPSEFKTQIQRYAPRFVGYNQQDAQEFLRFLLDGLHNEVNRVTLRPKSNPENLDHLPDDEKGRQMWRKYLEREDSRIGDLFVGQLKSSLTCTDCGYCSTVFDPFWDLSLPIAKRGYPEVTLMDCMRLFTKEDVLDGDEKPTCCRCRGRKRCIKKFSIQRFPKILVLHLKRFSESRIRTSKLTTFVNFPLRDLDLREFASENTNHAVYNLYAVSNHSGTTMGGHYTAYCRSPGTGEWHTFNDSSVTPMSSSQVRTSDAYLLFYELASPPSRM

[9] = biological target: T6, Ubiquitin carboxyl-terminal hydrolase 5 (Homo sapiens, UniProt P45974); conditions: 1 μM
T6 sequence (P45974 1-858): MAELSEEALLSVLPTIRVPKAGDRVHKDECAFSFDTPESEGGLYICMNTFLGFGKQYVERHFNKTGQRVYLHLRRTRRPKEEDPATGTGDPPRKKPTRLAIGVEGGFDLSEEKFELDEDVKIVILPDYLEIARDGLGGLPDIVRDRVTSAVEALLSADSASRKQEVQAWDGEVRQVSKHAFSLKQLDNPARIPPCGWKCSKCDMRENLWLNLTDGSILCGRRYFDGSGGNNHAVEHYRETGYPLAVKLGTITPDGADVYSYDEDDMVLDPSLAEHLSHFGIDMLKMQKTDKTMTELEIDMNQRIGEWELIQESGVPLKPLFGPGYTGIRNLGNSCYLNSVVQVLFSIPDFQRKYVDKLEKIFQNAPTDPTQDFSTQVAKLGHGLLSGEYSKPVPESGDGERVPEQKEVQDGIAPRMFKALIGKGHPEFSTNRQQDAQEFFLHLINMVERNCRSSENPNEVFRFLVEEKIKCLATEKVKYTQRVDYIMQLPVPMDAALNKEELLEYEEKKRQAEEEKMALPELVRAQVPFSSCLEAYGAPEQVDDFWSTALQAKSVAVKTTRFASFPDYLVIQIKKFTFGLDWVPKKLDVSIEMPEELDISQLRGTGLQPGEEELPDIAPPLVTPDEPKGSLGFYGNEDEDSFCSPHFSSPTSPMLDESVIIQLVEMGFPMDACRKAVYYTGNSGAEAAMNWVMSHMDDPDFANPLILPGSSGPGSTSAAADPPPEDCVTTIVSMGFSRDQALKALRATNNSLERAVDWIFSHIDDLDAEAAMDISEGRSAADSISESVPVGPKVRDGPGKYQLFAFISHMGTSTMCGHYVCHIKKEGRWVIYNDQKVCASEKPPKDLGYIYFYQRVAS

[10] = biological target: Ubiquitin carboxyl-terminal hydrolase 10 (Homo sapiens, UniProt Q14694); conditions: 1 μM
[11] = biological target: Ubiquitin carboxyl-terminal hydrolase 14 (Homo sapiens, UniProt P54578); conditions: 100 nM
Chain of Ubiquitin carboxyl-terminal hydrolase 14 (P54578 whole entry): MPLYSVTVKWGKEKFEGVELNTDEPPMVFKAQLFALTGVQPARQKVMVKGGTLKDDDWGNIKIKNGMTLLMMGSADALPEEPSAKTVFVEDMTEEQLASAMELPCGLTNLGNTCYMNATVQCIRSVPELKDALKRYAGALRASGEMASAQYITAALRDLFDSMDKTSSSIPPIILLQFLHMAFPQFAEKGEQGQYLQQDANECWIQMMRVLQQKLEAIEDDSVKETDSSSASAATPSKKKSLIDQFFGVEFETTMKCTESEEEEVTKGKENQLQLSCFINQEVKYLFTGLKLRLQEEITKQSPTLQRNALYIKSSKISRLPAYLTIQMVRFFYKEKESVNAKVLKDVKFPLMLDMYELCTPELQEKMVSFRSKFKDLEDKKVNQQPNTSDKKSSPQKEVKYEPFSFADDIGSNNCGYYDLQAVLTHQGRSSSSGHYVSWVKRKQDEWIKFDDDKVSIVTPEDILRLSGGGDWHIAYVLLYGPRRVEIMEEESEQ

Chain of DPP8 (Q6V1X1 whole entry, species assumed): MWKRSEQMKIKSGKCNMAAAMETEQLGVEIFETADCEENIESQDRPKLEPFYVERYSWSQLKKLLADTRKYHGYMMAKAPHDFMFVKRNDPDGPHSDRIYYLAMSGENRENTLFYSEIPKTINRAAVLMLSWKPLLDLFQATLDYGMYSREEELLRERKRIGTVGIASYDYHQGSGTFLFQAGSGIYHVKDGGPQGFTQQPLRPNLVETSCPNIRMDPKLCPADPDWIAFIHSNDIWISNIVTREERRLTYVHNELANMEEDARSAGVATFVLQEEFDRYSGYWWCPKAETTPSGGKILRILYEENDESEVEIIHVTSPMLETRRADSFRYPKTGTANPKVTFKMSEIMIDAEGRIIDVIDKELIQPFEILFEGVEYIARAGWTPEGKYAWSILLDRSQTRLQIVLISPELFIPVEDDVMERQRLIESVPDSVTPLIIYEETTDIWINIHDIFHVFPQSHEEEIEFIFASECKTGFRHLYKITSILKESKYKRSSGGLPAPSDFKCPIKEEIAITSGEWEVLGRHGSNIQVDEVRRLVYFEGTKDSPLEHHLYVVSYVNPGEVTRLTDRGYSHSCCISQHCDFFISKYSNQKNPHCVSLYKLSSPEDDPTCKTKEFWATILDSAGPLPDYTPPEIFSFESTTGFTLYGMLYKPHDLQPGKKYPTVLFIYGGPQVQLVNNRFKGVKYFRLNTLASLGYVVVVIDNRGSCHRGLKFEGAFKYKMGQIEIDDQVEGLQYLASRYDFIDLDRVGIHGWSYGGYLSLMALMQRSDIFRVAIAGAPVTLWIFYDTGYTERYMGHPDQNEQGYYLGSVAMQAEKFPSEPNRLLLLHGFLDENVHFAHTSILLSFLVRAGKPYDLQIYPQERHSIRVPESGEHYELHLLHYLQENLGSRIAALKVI
Chain of FAP (Q12884 whole entry): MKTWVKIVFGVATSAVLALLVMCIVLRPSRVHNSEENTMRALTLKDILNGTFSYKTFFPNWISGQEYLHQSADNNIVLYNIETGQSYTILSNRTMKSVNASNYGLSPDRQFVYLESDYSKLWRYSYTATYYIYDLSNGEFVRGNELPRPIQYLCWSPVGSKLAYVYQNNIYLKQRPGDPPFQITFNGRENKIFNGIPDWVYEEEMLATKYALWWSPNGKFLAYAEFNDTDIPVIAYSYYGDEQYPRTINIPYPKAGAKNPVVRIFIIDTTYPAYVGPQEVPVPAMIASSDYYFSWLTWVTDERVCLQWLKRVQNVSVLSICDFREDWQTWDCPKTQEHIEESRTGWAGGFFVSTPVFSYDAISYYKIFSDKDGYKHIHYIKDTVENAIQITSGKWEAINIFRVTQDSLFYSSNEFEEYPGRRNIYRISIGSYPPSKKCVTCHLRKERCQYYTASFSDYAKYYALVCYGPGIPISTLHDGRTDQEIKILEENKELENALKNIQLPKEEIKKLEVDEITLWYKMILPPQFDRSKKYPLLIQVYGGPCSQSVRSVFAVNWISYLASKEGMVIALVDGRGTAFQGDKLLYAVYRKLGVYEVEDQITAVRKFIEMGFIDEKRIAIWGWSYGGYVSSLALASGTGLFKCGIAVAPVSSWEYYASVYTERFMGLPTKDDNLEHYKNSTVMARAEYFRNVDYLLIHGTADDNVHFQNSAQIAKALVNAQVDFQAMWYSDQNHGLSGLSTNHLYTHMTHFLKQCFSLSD
Chain of Ubiquitin carboxyl-terminal hydrolase 7 (Q93009 whole entry): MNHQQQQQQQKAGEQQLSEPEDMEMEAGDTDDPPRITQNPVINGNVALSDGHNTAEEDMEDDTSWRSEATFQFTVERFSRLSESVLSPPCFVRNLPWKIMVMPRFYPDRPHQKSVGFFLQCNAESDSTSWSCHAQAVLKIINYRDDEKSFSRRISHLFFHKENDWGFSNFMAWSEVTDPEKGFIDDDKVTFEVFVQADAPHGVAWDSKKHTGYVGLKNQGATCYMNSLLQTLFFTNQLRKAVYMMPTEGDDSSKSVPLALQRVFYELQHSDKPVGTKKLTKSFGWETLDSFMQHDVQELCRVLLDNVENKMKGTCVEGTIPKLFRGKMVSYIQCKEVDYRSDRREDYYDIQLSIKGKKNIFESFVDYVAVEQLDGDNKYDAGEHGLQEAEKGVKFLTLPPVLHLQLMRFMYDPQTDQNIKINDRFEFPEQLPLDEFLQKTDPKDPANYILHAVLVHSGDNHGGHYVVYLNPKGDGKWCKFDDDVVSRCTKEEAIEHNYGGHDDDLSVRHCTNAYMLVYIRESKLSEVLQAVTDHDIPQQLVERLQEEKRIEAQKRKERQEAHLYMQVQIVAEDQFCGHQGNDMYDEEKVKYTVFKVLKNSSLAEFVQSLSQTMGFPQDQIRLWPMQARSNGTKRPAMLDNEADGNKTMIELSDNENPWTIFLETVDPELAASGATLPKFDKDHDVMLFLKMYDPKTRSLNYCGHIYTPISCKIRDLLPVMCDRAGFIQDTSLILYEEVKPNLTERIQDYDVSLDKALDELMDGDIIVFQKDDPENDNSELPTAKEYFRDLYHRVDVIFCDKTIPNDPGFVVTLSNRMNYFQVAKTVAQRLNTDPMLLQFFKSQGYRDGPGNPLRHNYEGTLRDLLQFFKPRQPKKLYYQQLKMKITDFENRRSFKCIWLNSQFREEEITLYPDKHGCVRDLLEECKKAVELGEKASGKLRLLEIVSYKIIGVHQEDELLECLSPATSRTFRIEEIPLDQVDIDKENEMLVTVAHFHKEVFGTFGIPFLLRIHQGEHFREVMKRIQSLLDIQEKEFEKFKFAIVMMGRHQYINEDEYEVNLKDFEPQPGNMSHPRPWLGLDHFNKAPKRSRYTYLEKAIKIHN
Chain of serine protease NS3 (a.a. 3-181) from Hepatitis C virus genotype 2a (Q99IB8 1033-1211 limits assumed, other chains not shown): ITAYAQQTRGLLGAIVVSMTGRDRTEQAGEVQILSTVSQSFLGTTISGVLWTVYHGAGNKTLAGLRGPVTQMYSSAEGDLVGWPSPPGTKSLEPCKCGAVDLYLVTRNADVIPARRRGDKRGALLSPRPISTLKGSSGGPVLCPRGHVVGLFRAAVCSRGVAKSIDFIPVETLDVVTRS
Chain of Ubiquitin carboxyl-terminal hydrolase 10 (Q14694 whole entry): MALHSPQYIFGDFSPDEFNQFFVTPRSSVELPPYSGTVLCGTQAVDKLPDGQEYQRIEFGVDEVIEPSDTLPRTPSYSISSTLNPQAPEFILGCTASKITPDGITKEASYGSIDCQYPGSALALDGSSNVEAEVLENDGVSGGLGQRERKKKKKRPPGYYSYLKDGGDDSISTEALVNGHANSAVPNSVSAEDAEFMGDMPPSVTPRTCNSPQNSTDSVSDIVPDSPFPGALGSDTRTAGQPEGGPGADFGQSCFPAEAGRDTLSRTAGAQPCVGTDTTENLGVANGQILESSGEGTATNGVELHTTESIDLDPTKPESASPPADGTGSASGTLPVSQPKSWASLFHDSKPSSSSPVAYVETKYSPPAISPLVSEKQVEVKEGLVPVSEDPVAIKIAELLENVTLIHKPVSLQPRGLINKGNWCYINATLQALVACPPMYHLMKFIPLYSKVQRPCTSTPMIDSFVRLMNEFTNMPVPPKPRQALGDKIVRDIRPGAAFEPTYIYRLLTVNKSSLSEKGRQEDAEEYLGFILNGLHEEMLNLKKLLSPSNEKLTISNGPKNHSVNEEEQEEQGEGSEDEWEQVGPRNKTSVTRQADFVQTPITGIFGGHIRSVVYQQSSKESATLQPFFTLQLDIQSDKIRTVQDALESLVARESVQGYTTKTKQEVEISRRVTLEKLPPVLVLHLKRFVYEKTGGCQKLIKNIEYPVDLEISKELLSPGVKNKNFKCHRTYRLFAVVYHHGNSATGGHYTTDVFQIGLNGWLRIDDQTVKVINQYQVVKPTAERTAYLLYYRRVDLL
Chain of Ataxin3 (P54252 whole entry, species assumed): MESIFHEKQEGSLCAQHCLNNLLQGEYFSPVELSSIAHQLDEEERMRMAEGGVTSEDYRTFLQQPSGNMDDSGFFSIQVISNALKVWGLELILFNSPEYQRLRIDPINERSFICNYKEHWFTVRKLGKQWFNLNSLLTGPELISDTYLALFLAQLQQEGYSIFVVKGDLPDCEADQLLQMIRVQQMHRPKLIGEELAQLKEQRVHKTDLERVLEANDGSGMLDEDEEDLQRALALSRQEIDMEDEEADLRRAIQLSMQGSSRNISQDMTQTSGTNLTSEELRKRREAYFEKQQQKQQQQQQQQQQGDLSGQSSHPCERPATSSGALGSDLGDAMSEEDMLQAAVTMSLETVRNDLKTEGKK

CC(C)(C)OC(=O)N[C@H]1CCCCC/C=C\[C@@H]2C[C@@]2(C(=O)NS(=O)(=O)C2CC2)NC(=O)[C@@H]2C[C@@H](OC(=O)N3Cc4cccc(F)c4C3)CN2C1=O [Denoprevir, reference compound]
Percentage inhibition (%), Reference [1]: 100%
Percentage inhibition (%), Reference [2]: 94%
Percentage inhibition (%), Reference [3]: 98%

N#Cc1ccc(NCCNCC(=O)N2N=CCC2C#N)nc1 (stereo not shown) [KR62436]
Percentage inhibition (%), Reference (DPP7): 83%
Percentage inhibition (%), Reference (DPP8): 96%

N#C[C@@H]1CC(F)(F)CN1C(=O)CNC(=O)c1ccnc2ccccc12 [SP-13786]
Percentage inhibition (%), Reference (FAP): 100%

Ub-Aldehyde
Percentage inhibition (%), Reference (Deubiquitinase OTUD6B): 97%
Percentage inhibition (%), Reference [4]: 92%
Percentage inhibition (%), Reference [5]: 95%
Percentage inhibition (%), Reference [6]: 95%
Percentage inhibition (%), Reference (Ataxin3): 77%
Percentage inhibition (%), Reference [7]: 73%
Percentage inhibition (%), Reference [8]: 91%
Percentage inhibition (%), Reference [9]: 84%
Percentage inhibition (%), Reference [10]: 82%
Percentage inhibition (%), Reference [11]: 96%
